Measurements as given in patent US12662473B2, “Inhibitors for programmed cell necrosis and preparation method therefor and use thereof” (SHANGHAI INSTITUTE OF ORGANIC CHEMISTRY, CHINESE ACADEMY OF …, priority 2019, dated 2026).
Where two headings read alike, the source gives them in different places.

Tests used:
FADD−/− Jurkat cells = experiment: TNF-induced programmed cell necrosis inhibition, Cell Titer-Glo viability; assay type: cell-based; details: Homo sapiens, Jurkat
Source text: (§1) The adopted biological assay protocol was: the programmed necroptosis effect of compounds on TNF-induced in FADD (Fas-Associated Death Domain) deficient Jurkat cells and L929 cells.
(§2) In order to verify the inhibitory effect of the compounds of the present invention on programmed cell necrosis at the cellular level, cell types closely related to the RIP1 pathway, namely FADD deficient Jurkat cells (human peripheral blood leukemia T cell line) and L929 cells, were selected. Two different stimulation methods were used: tumor necrosis factor (TNFα) used alone, or TNFα used in combination with mitochondria-derived cysteine aspartate activator (SMAC). Cells viability was calculated by detecting chemiluminescence values, and the biological activity of the compound for inhibiting programmed cell necrosis can be obtained.
(§3) Methods: FADD deficient Jurkat cells: FADD deficient Jurkat cells (human peripheral blood leukemia T cell line) were cultured in vitro. After growing to the logarithmic growth phase, the cells were collected, centrifuged at 1000 rpm for 5 min, the supernatant was discarded, and the cell concentration was adjusted to 2.5×10^5/mL. Cells were seeded into 384-well plates, 40 μl per well. 5 μL of Smac (50 nM) diluted in cell culture medium and 5 μL of each compound were added to the corresponding wells. After pretreatment at 37° C. for 1 h, 5 μL of TNFα (50 ng/mL) diluted in cell culture medium was added to each well of the stimulation group, and 5 μL of the culture medium was added to the control group. The plate was cultured in a cell incubator (37° C., 5% CO2) for 14 h, and 15 μl of Cell Titer-Glo solution was added to each well, then incubated for 30 min at room temperature, and intracellular ATP level was measured by detecting luminescence. The unstimulated DMSO control wells were taken as 100% cell viability. L929 cells: The L929 cells (mouse fibroblasts) were cultured in vitro, digested and diluted to 6.25×10^4/ml, and the cells were seeded into 384-well plates, 40 μl per well. The plate was placed in a cell incubator (37° C., 5% CO2) for 12 hours. 5 μL of Smac (500 nM) diluted in cell culture medium and 5 μL of each compound were added to the corresponding wells. After pretreatment at 37° C. for 1 h, 5 μL of TNFα (500 ng/mL) diluted in cell culture medium was added to each well of the stimulation group, and 5 μL of the culture medium was added to the control group. After the plate was cultured for 14 h in a cell incubator (37° C., 5% CO2), 15 μl of Cell Titer-Glo solution was added to each well. The plate was incubated at room temperature for 30 min, and intracellular ATP level was measured by detecting luminescence. The unstimulated DMSO control wells were taken as 100% cell viability. EC50 values of the compounds were calculated using Prism Graphpad statistical software.
FADD deficient Jurkat cells: FADD deficient Jurkat cells (human peripheral blood leukemia T cell line) were cultured in vitro. After growing to the logarithmic growth phase, the cells were collected, centrifuged at 1000 rpm for 5 min, the supernatant was discarded, and the cell concentration was adjusted to 2.5×10^5/mL. Cells were seeded into 384-well plates, 40 μl per well. 5 μL of Smac (50 nM) diluted in cell culture medium and 5 μL of each compound were added to the corresponding wells. After pretreatment at 37° C. for 1 h, 5 μL of TNFα (50 ng/mL) diluted in cell culture medium was added to each well of the stimulation group, and 5 μL of the culture medium was added to the control group. After the plate was cultured in a cell incubator (37° C., 5% CO2) for 14 h, 15 μl of Cell Titer-Glo solution was added to each well. The mixture was incubated for 30 min at room temperature, and intracellular ATP level was measured by detecting luminescence. The unstimulated DMSO control wells were taken as 100% cell viability.

L929 cells = experiment: as above; assay type: cell-based, mouse; details: Mus musculus, read-out: EC50 inhibitory activity on programmed cell necrosis
Source text: as §1, §2, §3
L929 cells: The L929 cells (mouse fibroblasts) were cultured in vitro, digested and diluted to 6.25×10^4/ml, and the cells were seeded into 384-well plates, 40 μl per well. The plate was placed in a cell incubator (37° C., 5% CO2) for 12 hours. 5 μL of Smac (500 nM) diluted in cell culture medium and 5 μL of each compound were added to the corresponding wells. After pretreatment at 37° C. for 1 h, 5 μL of TNFα (500 ng/mL) diluted in cell culture medium was added to each well of the stimulation group, and 5 μL of the culture medium was added to the control group. After the plate was cultured for 14 h in a cell incubator (37° C., 5% CO2), and 15 μl of Cell Titer-Glo solution was added to each well, then incubated at room temperature for 30 min, and intracellular ATP level was measured by detecting luminescence. The unstimulated DMSO control wells were taken as 100% cell viability.

[1] = 14 h, TNFa + SM164, read-out: EC50 inhibitory activity on programmed cell necrosis
[2] = TNFa, read-out: EC50 inhibitory activity on programmed cell necrosis
[3] = L929, 14 h, L929 cells (mouse), TNFa + SM164

Structure (SMILES) | EC50 (FADD−/− Jurkat cells; [1]) | EC50 (FADD−/− Jurkat cells; [2]) | EC50 (L929 cells; [3]) | EC50 (L929 cells; L929, L929 cells (mouse), TNFa) | EC50 (L929 cells; L929, L929 cells (mouse), TNFa + SM164)
Cc1ccc(C2CCCN2C(=O)C(C)(C)Oc2ccc(Cl)cc2C(F)(F)F)cc1 (centres unmarked) [QY-4-67] | 5160 nM | 1330 nM | 3930 nM | 1380 nM | –
CC(C)(Oc1ccc(Cl)cc1F)C(=O)N1CCCC1c1cccc(C#N)c1 (centres unmarked) [QY-4-69] | 9380 nM | 1540 nM | 3630 nM | 650 nM | –
COc1cccc(C2CCCN2C(=O)C(C)(C)Oc2ccc(Cl)cc2F)c1 (centres unmarked) [QY-4-70] | > 10000 nM | > 10000 nM | > 10000 nM | 1780 nM | –
Cc1ccc(C2CCCN2C(=O)C(C)(C)Oc2ccc(Cl)cc2F)cc1 (centres unmarked) [QY-4-75] | 704 nM | 83 nM | 188 nM | 43 nM | –
CC(C)(Oc1ccc(Cl)cc1F)C(=O)N1CCCC1c1ccccc1F (centres unmarked) [QY-4-78] | 1100 nM | 205 nM | 724 nM | 156 nM | –
COc1ccc(C2CCCN2C(=O)C(C)(C)Oc2ccc(Cl)cc2F)cc1 (centres unmarked) [QY-4-87] | > 10000 nM | 2380 nM | > 10000 nM | 2400 nM | –
CC(C)(Oc1ccc(Cl)cc1F)C(=O)N1CCCC1c1ccc(C#N)cc1 (centres unmarked) [QY-4-88] | 4000 nM | 746 nM | 3100 nM | 1160 nM | –
CCc1ccc(C2CCCN2C(=O)C(C)(C)Oc2ccc(Cl)cc2)cc1 (centres unmarked) [QY-4-96] | 6930 nM | 1460 nM | 8130 nM | 2100 nM | –
CCc1ccc(C2CCCN2C(=O)C(C)(C)Oc2ccc(Cl)cc2F)cc1 (centres unmarked) [QY-4-99] | 9200 nM | 1450 nM | 9120 nM | 2510 nM | –
CC(C)c1ccc(C2CCCN2C(=O)C(C)(C)Oc2ccc(Cl)cc2F)cc1 (centres unmarked) [QY-5-1] | > 10000 nM | > 10000 nM | > 10000 nM | > 10000 nM | –
CN(C)c1ccc(C2CCCN2C(=O)C(C)(C)Oc2ccc(Cl)cc2F)cc1 (centres unmarked) [QY-5-4] | > 10000 nM | > 10000 nM | > 10000 nM | > 10000 nM | –
Cc1ccc([C@@H]2CCCN2C(=O)C(C)(C)Oc2ccc(Cl)cc2F)cc1 [QY-5-22, (S)-2-(4-Chloro-2-fluorophenoxy)-2-methyl-1-(2-(p-tolyl)pyrrolidin-1-yl)propan-1-one] | 683 nM | 98 nM | – | 62 nM | 262 nM
CNC(=O)c1ccc(C2CCCN2C(=O)C(C)(C)Oc2ccc(Cl)cc2F)cc1 (centres unmarked) [QY-5-79] | 1060 nM | 9230 nM | > 10000 nM | > 10000 nM | –
CC(C)(Oc1ccc(Cl)cc1F)C(=O)N1CCCC1c1ccc(C(F)(F)F)cc1 (centres unmarked) [QY-5-83] | 7720 nM | 1290 nM | > 10000 nM | 8750 nM | –
CC(C)(Oc1ccc(Cl)cc1F)C(=O)N1CCCC1c1ccc(C(N)=O)cc1 (centres unmarked) [QY-5-85] | > 10000 nM | 5340 nM | > 10000 nM | > 10000 nM | –
Cc1ccc(C2CC=NN2C(=O)C(C)(C)Oc2ccc(Cl)cc2F)cc1 (centres unmarked) [QY-6-47] | 90 nM | 5 nM | 49 nM | 18 nM | –
CC(C)(Oc1ccc(Cl)cc1F)C(=O)N1CCC[C@H]1c1cc(F)cc(F)c1 [QY-6-60] | 707 nM | 17 nM | 402 nM | 130 nM | –
CC(C)(Oc1ccc(Cl)cc1F)C(=O)N1CCC[C@H]1c1ccc(F)c(F)c1 [QY-6-61] | 379 nM | 12 nM | 218 nM | 75 nM | –
CC(C)(Oc1ccc(Cl)cc1F)C(=O)N1CCC[C@H]1c1ccc(F)cc1 [QY-6-62] | 117 nM | 3 nM | 174 nM | 44 nM | –
CNC(=O)c1ccc(OC(C)(C)C(=O)N2CCCC2c2ccc(C)cc2)c(F)c1 (centres unmarked) [QY-6-63] | > 10000 nM | 4290 nM | 7800 nM | 3150 nM | –
CC(C)(Oc1ccc(Cl)cc1)C(=O)N1CCC[C@H]1c1ccccc1 [QY-6-83] | 613 nM | 56 nM | 323 nM | 40 nM | –
CC(C)(Oc1ccc(Cl)cc1F)C(=O)N1CCC[C@H]1c1ccccc1 [QY-6-84] | 439 nM | 27 nM | 216 nM | 25 nM | –
[2H]c1c([2H])c([C@]2([2H])CCCN2C(=O)C(C)(C)Oc2ccc(Cl)cc2F)c([2H])c([2H])c1C([2H])([2H])[2H] [QY-7-7] | 200 nM | 5 nM | 24 nM | 1 nM | –
COc1cc(OC(C)(C)C(=O)N2N=CCC2c2ccc(C)cc2)ccc1Cl (centres unmarked) [QY-7-101] | 1100 nM | 630 nM | 10 nM | 11 nM | –
CC(C)(Oc1ccc(Cl)cc1F)C(=O)N1N=CCC1c1ccc(Cl)cc1 (centres unmarked) [QY-8-101] | 692 nM | 15 nM | 15 nM | 5.8 nM | –
COc1cc(Cl)ccc1OC(C)(C)C(=O)N1CCCC1c1ccc(C)cc1 (centres unmarked) [QY-9-8] | 1.6 nM | 0.43 nM | 138 nM | 0.44 nM | –
COc1cc(Cl)ccc1OC(C)(C)C(=O)N1N=CCC1c1ccc(Cl)cc1 (centres unmarked) [QY-9-32] | 842 nM | 26.6 nM | – | 35.7 nM | –
